Experimental data: PMC12363342, “Investigating the N-terminal linker histone H1 subtypes as substrates for JmjC lysine demethylases” (RSC Chemical Biology, 2025)
Square brackets hold non-standard residues; d marks the D form. Ends that are not written are not given here. Lys(Me2) = CN(C)CCCC[C@H](N)C(=O)O

Columns and labels:
KDM6B = assay: LC-MS demethylation activity assay, KDM6B; format: biochemical, human; settings: 2 μM KDM, 10 μM H1/H3 peptide, 10 μM FAS, 100 μM LAA, 20 μM 2OG, 50 mM HEPES pH 7.5, 2 h, room temperature
Method: (§1) The substrate specificity of JmjC KDMs for H1 was examined using liquid chromatography coupled to mass spectrometry (LC-MS) assays. The H1 peptides (10 μM) were incubated with the recombinant KDM (2 μM) in HEPES buffer at pH 7.5 at room temperature for 2 h, in the presence of ferrous(II) ammonium sulfate (FAS, 10 μM), sodium ascorbate (LAA, 100 μM) and 2OG (20 μM), and then quenched with formic acid. N^ε-Methylated H3K9 and H3K36 peptides were used as positive controls (Fig. 3–5 and Fig. S2–S6).[26]
(§2) The catalytic domains of the JmjC KDMs used were recombinantly produced as reported in either Escherichia coli (KDM4AM1-L359,[38] KDM4DM1-L359,[39] KDM4EM1-R336,[30] KDM6BD1141–E1590[40] and KDM3CL2157-L2500) or Sf9 cells (KDM3AT515–S1317, KDM3B882–1761, and KDM5DM1-D775) as N-terminally His6-tagged proteins. […] To produce proteins, DNA sequences encoding for KDM3A, KDM3B and KDM5D were inserted into the pFB-LIC vector, containing a TEV-protease cleavable N-terminal 6x-histidine tag via ligation independent cloning (LIC). The resultant plasmids were transformed into baculovirus and Sf9 cells ([…]) which were infected with the virus stock. The cells were grown at 27 °C and 90 rpm for 70 h. Cells were then harvested and suspended in 100 mL of lysis buffer (50 mM HEPES-NaOH, pH 7.4, 500 mM NaCl, 20 mM imidazole, 0.5 mM Tris (2-carboxyethyl)phosphine (TCEP), 5% (v/v) glycerol). […] The supernatant was loaded onto a Ni-NTA gravity column, washed with 10 column volume of lysis buffer and eluted using the elution buffer (50 mM HEPES-NaOH, pH 7.4, 500 mM NaCl, 300 mM imidazole, 0.5 mM TCEP, 5% (v/v) glycerol). The eluted protein was further purified using S200 gel filtration column chromatography (50 mM HEPES-NaOH, pH 7.4, 150 mM NaCl, 0.5 mM TCEP and 5% glycerol). Protein purity was analysed by SDS-PAGE and further confirmed by mass spectrometry. Selected fractions were pooled, concentrated and stored at −80 °C.
(§3) All reagents were purchased from Sigma Aldrich and were of the highest grade available. Ferrous(II) ammonium sulfate (FAS) solutions were prepared freshly by dissolving FAS to 400 mM in 20 mM HCl with subsequent dilution to 1 mM using deionized water. Fresh 2OG (10 mM) and LAA (50 mM) solutions were prepared by dissolving the solids in deionised water. All enzyme reactions were performed in 384-well plates (Greiner Bio-One) with a final reaction volume of 50 μL. Substrate mixtures contained 50 mM HEPES pH 7.5, LAA (100 μM), FAS (10 μM), 2OG (20 μM) and an H1 isoform peptide (10 μM). Reactions were initiated by the addition of enzyme to a final concentration of 2.0 μM. After 2 h, the reactions were stopped by the addition of 5 μL of 10% (v/v) LC-MS grade formic acid (Fisher Scientific) to a final concentration of 1% (v/v). Product analyses were performed by liquid chromatography-mass spectrometry (LC-MS) using an Agilent 1290 infinity II LC system equipped with an Agilent 1290 multisampler and an Agilent 1290 high speed pump and connected to an Agilent 6550 accurate mass iFunnel quadrupole time of flight (Q-TOF) mass spectrometer. 1 μL of the reaction mixture was injected onto a 1.8 μm × 2.1 × 50 mm ZORBAX RRHD Eclipse Plus C18 column (Agilent). Solvent A consisted of HPLC grade water containing 0.1% (v/v) formic acid and solvent B consisted of MeCN containing 0.1% (v/v) formic acid. Peptides were separated using a stepwise gradient (0 min – 95% solvent A, 1.0 min – 80% solvent A, 3.0 min – 45% solvent A, 4.0 min – 45% solvent A, 5.0 min – 0% solvent A, 6.0 min – 0% solvent A, 7.0 min – 95% solvent A). This was followed by a 3 min post-run with 95% solvent A to re-equilibrate the column. All flow rates were 0.2 mL min^−1. A blank injection of HPLC grade water was carried out between each sample injection.

KDM4D = target: T1, KDM4D (Homo sapiens, UniProt Q6B0I6); assay: LC-MS demethylation activity assay, KDM4D; format: biochemical; settings: room temperature
T1 construct: KDM4AM1-L359,[38]; KDM4DM1-L359,[39]; KDM4EM1-R336,[30]; His6 (N); made in house; host or cells: Escherichia coli
T1 sequence (Q6B0I6 1-359): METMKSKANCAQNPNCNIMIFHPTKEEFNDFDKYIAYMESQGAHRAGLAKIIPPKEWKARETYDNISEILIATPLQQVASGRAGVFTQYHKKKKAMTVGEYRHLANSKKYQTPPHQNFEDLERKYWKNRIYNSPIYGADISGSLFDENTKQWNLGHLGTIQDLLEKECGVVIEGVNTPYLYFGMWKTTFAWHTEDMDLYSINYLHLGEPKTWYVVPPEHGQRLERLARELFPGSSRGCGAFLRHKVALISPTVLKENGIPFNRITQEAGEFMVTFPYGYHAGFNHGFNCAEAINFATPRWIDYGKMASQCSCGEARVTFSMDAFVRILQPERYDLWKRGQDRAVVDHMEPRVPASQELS
Method: as §1, §2, §3

KDM4A = assay: LC-MS demethylation activity assay, KDM4A; format: biochemical, human; settings: 10 μM FAS, 100 μM LAA, 20 μM 2OG, room temperature
Method: as §1, §2, §3

KDM5D = assay: LC-MS demethylation activity assay, KDM5D; format: biochemical, human; settings: 2 μM KDM, 10 μM H1/H3 peptide, 10 μM FAS, 100 μM LAA, 20 μM 2OG, 50 mM HEPES pH 7.5, 2 h, room temperature
Method: as §1, §2, §3

KDM4E = target: T2, KDM4E (Homo sapiens, UniProt B2RXH2); assay: LC-MS demethylation activity assay, KDM4E; format: biochemical; settings: room temperature
T2 construct: KDM4DM1-L359,[39]; KDM4EM1-R336,[30]; His6 (N); made in house; host or cells: Escherichia coli
T2 sequence (B2RXH2 1-336): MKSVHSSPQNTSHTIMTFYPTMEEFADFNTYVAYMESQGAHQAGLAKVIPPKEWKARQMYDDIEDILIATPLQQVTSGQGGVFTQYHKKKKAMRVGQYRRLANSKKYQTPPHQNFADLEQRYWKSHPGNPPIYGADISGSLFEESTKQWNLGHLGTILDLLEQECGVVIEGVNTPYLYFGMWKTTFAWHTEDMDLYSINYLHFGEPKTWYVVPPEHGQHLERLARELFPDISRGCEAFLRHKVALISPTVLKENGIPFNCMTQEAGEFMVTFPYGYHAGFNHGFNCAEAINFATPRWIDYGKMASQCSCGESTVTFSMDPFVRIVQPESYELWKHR
Method: as §1, §2, §3

KDM3A = assay: LC-MS demethylation activity assay, KDM3A; format: biochemical, human; settings: 2 μM KDM, 10 μM H1/H3 peptide, 10 μM FAS, 100 μM LAA, 20 μM 2OG, 50 mM HEPES pH 7.5, 2 h, room temperature
Method: as §1, §2, §3

KDM3C = assay: LC-MS demethylation activity assay, KDM3C; format: biochemical, human; settings: 2 μM KDM, 10 μM H1/H3 peptide, 10 μM FAS, 100 μM LAA, 20 μM 2OG, 50 mM HEPES pH 7.5, 2 h, room temperature
Method: as §1, §2, §3

KDM3B = assay: LC-MS demethylation activity assay, KDM3B; format: biochemical, human; settings: 2 μM KDM, 10 μM H1/H3 peptide, 10 μM FAS, 100 μM LAA, 20 μM 2OG, 50 mM HEPES pH 7.5, 2 h, room temperature
Method: as §1, §2, §3

[1] = D (di-) initial methylation state
[2] = 2 μM KDM4D, 10 μM peptide, standard conditions, 2 h
[3] = 2 μM KDM, 10 μM H1/H3 peptide, 10 μM FAS, 100 μM LAA, 20 μM 2OG, 50 mM HEPES pH 7.5, 2 h, D (di-) initial methylation state
[4] = M (mono-) initial methylation state
[5] = 2 μM KDM, 10 μM H1/H3 peptide, 10 μM FAS, 100 μM LAA, 20 μM 2OG, 50 mM HEPES pH 7.5, 2 h, M (mono-) initial methylation state

Row | mono-methylated product formed by KDM4D (KDM4D; [2]) [%] | non-methylated product formed by KDM4D (KDM4D; [2]) [%] | unmethylated lysine product formed by KDM4E (KDM4E; 2 μM KDM4E, 10 μM peptide, standard conditions, 2 h) [%] | KDM4D demethylation activity, M (KDM4D; [5]) | KDM4E demethylation activity, M (KDM4E; [5]) | Substance | KDM6B demethylation activity, D (KDM6B; [1]) | KDM4D demethylation activity, D (KDM4D; [3]) | substrate conversion (demethylation) by KDM4A (KDM4A; 2 μM KDM4A, 10 μM peptide, HEPES pH 7.5, 2 h) [%] | KDM4A demethylation activity, D (KDM4A; 2 μM KDM, 10 μM H1/H3 peptide, 50 mM HEPES pH 7.5, 2 h, D (di-) initial methylation state) | KDM5D demethylation activity, D (KDM5D; [1]) | KDM4E demethylation activity, D (KDM4E; [3]) | KDM3A demethylation activity, D (KDM3A; [1]) | KDM3C demethylation activity, D (KDM3C; [1]) | KDM3B demethylation activity, D (KDM3B; [1]) | KDM6B demethylation activity, M (KDM6B; [4]) | KDM4A demethylation activity, M (KDM4A; 2 μM KDM, 10 μM H1/H3 peptide, 50 mM HEPES pH 7.5, 2 h, M (mono-) initial methylation state) | KDM5D demethylation activity, M (KDM5D; [4]) | KDM3A demethylation activity, M (KDM3A; [4]) | KDM3C demethylation activity, M (KDM3C; [4]) | KDM3B demethylation activity, M (KDM3B; [4])
1 | ~53 | ~8 | ~60 | – | – | KKKA[Lys(Me2)]KAGATAGKRK [Peptide H1.3K24me2, 15-mer linker histone H1.3 residues 20-34 peptide, di-methylated K24] | ● [red] | ● [green] (green dots indicate good demethylation (>50% conversion)) | ~23 | ● [yellow] (yellow dots indicate moderate demethylation (<50% conversion)) | ● [red] | ● [green] (green dots indicate good demethylation (>50% conversion)) | ● [red] | ● [red] | ● [red] | – | – | – | – | – | –
2 | – | – | – | ● [red] | ● [red] | SAPATGGVKmeKPHRYRPGTVAL [Peptide H3K36me, histone H3 residues 28-48 peptide with mono-methylated K36; control, reference compound] | – | – | – | – | – | – | – | – | – | ● [red] | ● [red] | ● [red] | ● [red] | ● [red] | ● [red]
